Assay: gradient 5% acetonitrile 3 min, to 50% in 2 min, to 85% in 15 min, held 3 min, 100 µL/min
Conditions: column: Zorbax Extend-C18 2.1 x 50 mm; eluents: water / acetonitrile, 0.1% formic acid
How it was run: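 Over 3 months, pure standards in mixtures of ~100 molecules were run by HPLC coupled to a quadrupole time-of-flight mass spectrometer in positive and negative ionization mode. The column was a Zorbax Extend-C18 (2.1 × 50 mm, 1.8 μm) at 100 μL/min, eluted with water and acetonitrile each holding 0.1% formic acid, with 40 μL dead and 900 μL dwell volumes. Retention time was determined from adduct peaks chosen by software and checked manually.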

SMILES	RP-LC retention time [s]
Cc1cc(C2CCCN2C(=O)Nc2ccccc2C)on1 (stereo not given)	748
Cn1nnc2ccc(-c3noc(-c4ccccc4F)n3)cc21	876
O=C(CN1CCN(C(=O)Nc2ccc(Br)cc2)CC1=O)Nc1ccc(F)cc1F	1020
Cc1ccc(CC(=O)N2CCc3cc(-c4ccno4)ccc32)cc1	1020
COc1ccc(Cl)cc1NC(=O)CSc1ccc2nnc(-c3cccc(F)c3)n2n1	802
O=C(c1nc2ccccn2c1-c1ccsc1)N1CCCCC1	665
CCC(=O)N1CCCC1c1nc2ccccc2n1CC(=O)OC (stereo not given)	592
CCn1c(=O)sc2cc(S(=O)(=O)N3CCC(C(=O)NCc4ccc(F)cc4)CC3)ccc21	979
COc1ccc(NC(=O)c2sc(-c3cn(C(C)C)c4ncccc34)nc2C)cc1OC	944
COc1ccc(CCc2nc(C3CC(=O)N(c4ccc(Cl)cc4)C3)no2)cc1 (stereo not given)	1050
CCc1ccc(S(=O)(=O)Nc2cc(-c3cn4ccccc4n3)ccc2C)cc1	695
CCOC(=O)N1CCC(NC(=O)CCC2CCN(c3cc(NC4CC4)ncn3)CC2)CC1	619
O=C(CSc1nc(N2CCCCC2)nc2ccccc12)Nc1ccccc1	702
CCCNC(=O)N1CCC2(CCCCO2)CC1	602
CCn1cc2nc(SCc3cc(F)cc(F)c3)n(Cc3ccccc3F)c(=O)c2n1	1150
CN(C)c1cnc(-n2cc(NC(=O)c3ccc(C(F)(F)F)cc3)cn2)nc1	833
Cc1nc(-c2cn(-c3cccc(F)c3)nn2)no1	805
CC1=C(c2ccc(F)cc2)S(=O)(=O)N=C1N1CCCN(C(=O)c2cccs2)CC1	806
COc1ccc(NC(=O)Cn2ccnc2-c2ccnc(N3CCOCC3)c2)c(OC)c1	613
Cn1c(=O)n(C)c2cc(N3CCCCC3)c(NC(=O)COc3ccc(Cl)cc3)cc21	1040
COc1cccc(-n2c(=O)c(C(=O)NCc3cccs3)c(O)c3cccnc32)c1	1170
O=C(NC1CCN(c2cc(-c3ccccc3)[nH]n2)C1)c1ccccc1F (stereo not given)	756
COCc1ncc(C)n1CC1CN(C(=O)C2(c3ccc(OC)cc3)CC2)C1	625

SMILES	RP-LC retention time [s]
CCCNc1cc(N2CCC(CCC(=O)NCc3ccc(F)cc3)CC2)ncn1	686
COc1cc2c(cc1NC(=O)c1ccco1)n(C)c(=O)n2C	688
CO[C@H]1C(=O)N(C(C)C)[C@H]1C1CCN(C(=O)c2ccco2)CC1	692
CS(=O)(=O)c1ccc(C(=O)N2CCN(c3ccccc3)CC2)cc1	683
Cc1cc(C)n2nc(SCC(=O)NC3CCCC(C)C3C)nc2n1 (stereo not given)	776
Cc1ccc(C)c(CNC(=O)Cn2cnc3onc(C)c3c2=O)c1	764
COc1cccc(CN2CC[C@@](C)(O)[C@H](N3CCCC3)C2)c1	519
Cc1[nH]c(C(=O)N2CCCC(C(=O)N3CCN(c4ccccc4)CC3)C2)c(C)c1C(=O)OC(C)C (stereo not given)	892
COc1ccc(-c2cc3nn(CC(=O)Nc4ccccc4OC)c(=O)n3c(C)n2)cc1	736
Cc1ccc(Oc2nccnc2N2CCCC(C(=O)NC(C)c3ccc(C)cc3C)C2)cc1 (stereo not given)	1160
Cc1ccc(-n2nc(N3CCN(C(=O)CC(C)C)CC3)ccc2=O)cc1C	831
O=C(COc1ccc(C(=O)N2CCN(CCc3ccccc3)CC2)cc1)C1CC1	583
COCCN(Cc1ccc(F)cc1)Cc1cc(=O)n2cc(Cl)ccc2n1	647
Cc1nc(C(=O)NC2CCCCC2)c(C)n1C1CCN(C)CC1	555
COc1ccc2[nH]cc(CCN3CC(C(=O)Nc4ccc5c(c4)CCC5)CC3=O)c2c1 (stereo not given)	841
O=C(Nc1cc(-c2ccsc2)no1)c1ccc(C(F)(F)F)cc1	1060
CN1C(=O)COc2ccc(-c3csc(NC(=O)c4cccc(Cl)c4)n3)cc21	1020
Cc1c(C)n(-c2ccc(Cl)cc2)c2ncn(CC(=O)N3CCCC3)c(=O)c12	803
CCn1nccc1C(=O)N1CCC[C@H]1c1nc(-c2ccccc2)n[nH]1	627
O=C(NC1CCCCCC1)c1cc(NS(=O)(=O)c2ccc(Cl)cc2)cnc1N1CCNCC1	698
Cc1ccc(/C=C/C(=O)N2CCC(c3cc(N)on3)CC2)cc1	751
CCn1c(C(=O)NC2CCCC2)cc2sc(Cl)cc21	1110

Source: the METLIN SMRT retention time set (Domingo-Almenara et al. 2019)
